Laboratory results reported in ChEMBL document CHEMBL1156442 (J Biol Chem, 2007).

How the values were obtained:
[1] = Octanol-water partition coefficient, log KOW of the compound; type: physicochemical; conditions: read-out: log K
[2] = Chemical stability in aqueous solution assessed as hydrolysis after 4 hrs; type: physicochemical; conditions: read-out: Activity
Rana temporaria = experiment: Anesthetic potency in Rana temporaria tadpoles assessed as loss of righting reflex for 60 mins; conditions: 1 h
[3] = Binding affinity to human serum albumin
Rattus norvegicus = experiment: Anesthetic potency in Sprague-Dawley rat assessed as loss of righting reflex; type: functional
[4] = biological target: T1, Gamma-aminobutyric acid receptor subunit alpha-1 (Homo sapiens, UniProt P14867+P18507+P47870); experiment: Activity at human GABAA alpha-1-beta-2-gamma-2s receptor expressed in HEK293 cells assessed as effect on GABA-induced current at 3 uM by whole cell patch-clamp technique; type: cell-based
T1 sequence (P14867 whole entry): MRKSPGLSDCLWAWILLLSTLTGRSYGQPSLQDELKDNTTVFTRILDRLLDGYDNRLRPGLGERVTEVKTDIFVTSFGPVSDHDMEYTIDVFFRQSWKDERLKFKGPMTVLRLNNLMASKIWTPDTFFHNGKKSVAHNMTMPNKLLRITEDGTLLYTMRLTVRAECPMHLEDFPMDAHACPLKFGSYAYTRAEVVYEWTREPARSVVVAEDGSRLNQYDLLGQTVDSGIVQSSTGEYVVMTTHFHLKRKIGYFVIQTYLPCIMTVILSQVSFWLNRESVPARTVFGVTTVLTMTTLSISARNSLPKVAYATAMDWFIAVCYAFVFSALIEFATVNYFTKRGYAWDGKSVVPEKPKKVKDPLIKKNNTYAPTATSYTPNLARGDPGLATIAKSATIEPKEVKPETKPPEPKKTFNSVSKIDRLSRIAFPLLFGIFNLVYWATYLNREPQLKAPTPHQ

## CC(c1ccccc1)n1cncc1C(=O)N=[N+]=[N-] (stereo unspecified)
[1]
  logP: 2.71
[2]
  degraded at 4 h: 10%

## CCOC(=O)c1cncn1[C@@H](C)c1ccccc1 [S-ETOMIDATE]
Rana temporaria
  EC50: 36 µM

## CCOC(=O)c1cncn1[C@H](C)c1ccccc1 [ETOMIDATE]
[1]
  logP: 2.89
[3]
  Kd: 176 µM

## C[C@H](c1ccccc1)n1cncc1C(=O)N=[N+]=[N-]
Rattus norvegicus
  ED50: 1.7 mg/kg
[4]
  EC50: 11 µM
[3]
  Kd: 121 µM

## CC(c1ccccc1)n1cncc1CO (stereo unspecified)
[1]
  logP: 1.28

## COC(=O)c1cncn1C(C)c1ccccc1 (stereo unspecified) [METOMIDATE]
[1]
  logP: 2.28

## CC(c1ccccc1)n1cncc1C=O (stereo unspecified)
[1]
  logP: 1.77
